The target of the test is T1, Recombinant human LTC4 synthase (Homo sapiens, UniProt Q16873).
T1 construct: made in house; host or cells: Pichia pastoris
T1 sequence (Q16873 1-150): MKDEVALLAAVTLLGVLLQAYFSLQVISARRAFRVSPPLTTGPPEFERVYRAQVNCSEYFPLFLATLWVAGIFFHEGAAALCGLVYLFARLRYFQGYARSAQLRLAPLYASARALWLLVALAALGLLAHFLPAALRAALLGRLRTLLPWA
Description: LTC4 synthase in vitro assay (HTRF detection of LTC4). Type of test: biochemical. As to conditions: total concentration of title compound in the assay 10 μM; HTRF method. The protocol:
Alternatively HTRF detection of LTC4 can be used:
In the assay, LTC4 synthase catalyses the reaction where the substrate LTA4 is converted to LTC4. Recombinant human LTC4 synthase is expressed in Piccia pastoralis and the purified enzyme is dissolved in 25 mM Tris-buffer pH 7.8 supplemented with 0.1 mM glutathione (GSH) and stored at −80° C. The assay is performed in phosphate buffered saline (PBS) pH 7.4 and 5 mM GSH in 384-well plates.
The following is added chronologically to each well: • 1. 48 μl LTC4 synthase in PBS with 5 mM GSH. The total protein concentration in this solution is 0.5 μg/ml. • 2. […] Incubation of the plate at room temperature for 10 minutes. • 4. 1 μl LTA4 (final conc. 2.5 μM). • 5. Incubation of the plate at room temperature for 5 minutes. • 6. 10 μl of the incubation mixture is analysed using homogeneous time resolved fluorescent (HTRF) detection.

For orientation: inhibition means the drop in the measured response relative to a control, in per cent. For the compound `CN(C(=O)c1ccc(C(F)(F)F)cc1)c1ccc(Oc2ccc(NC(=O)c3ccc(Cl)cc3Cl)c(C(=O)O)c2)cc1` [9:5, 5-(4-((N-methyl)-4-trifluoromethyl-benzamido)phenoxy)-2-(2,4-dichloro-benzamido)benzoic acid], the inhibition at 10 µM was 98%. In the case of `CCCCc1ccc(C(=O)Nc2cccc(Oc3ccc(NC(=O)c4c(F)cccc4F)c(C(=O)O)c3)c2)cc1` [10:1, 5-[(3-(4-(1-butyl)benzoylamino)-phenoxy)]-2-(2,6-difluorobenzoyl-amino)benzoic acid], the inhibition at 10 µM was 98%. Turning to `CCCCc1ccc(C(=O)Nc2cccc(Oc3ccc(NC(=O)c4ccc(OC(F)(F)F)cc4)c(C(=O)O)c3)c2)cc1` [10:2, 5-[(3-(4(1-butyl)benzoylamino)-phenoxy)]-2-(4-trifluoromethoxy-benzoylamino)benzoic acid], the inhibition at 10 µM was found to be 88%.

Take `CCCCc1ccc(C(=O)Nc2cccc(Oc3ccc(NC(=O)c4ccccc4OC)c(C(=O)O)c3)c2)cc1` [10:3, 5-[(3-(4-(1-butyl)benzoylamino)-phenoxy)]-2-(2-methoxybenzoyl-amino)benzoic acid]: the inhibition at 10 µM came out at 95%. With `CCCCc1ccc(C(=O)Nc2cccc(Oc3ccc(NC(=O)c4ccc(C(F)(F)F)cc4F)c(C(=O)O)c3)c2)cc1` [10:4, 5-[3-((4-(1-butyl)benzoyl)amino)-phenoxy]-2-(2-fluoro-4-trifluoro-methylbenzoylamino)benzoic acid], the “% inh.” value was 95%. On to `O=C(Nc1cccc(Oc2ccc(NC(=O)c3ccc(C(F)(F)F)cc3F)c(C(=O)O)c2)c1)c1cccc(C(F)(F)F)c1` [10:5, 2-(2-fluoro-4-trifluoromethylbenzoyl-amino)-5-[3-(3-trifluoro-methylbenzoylamino)phenoxy]benzoic acid], for which the “% inh.” value was 98%. On to `O=C(Nc1cccc(Oc2ccc(NC(=O)c3ccc(C(F)(F)F)cc3F)c(C(=O)O)c2)c1)c1ccc(C(F)(F)F)cc1` [10:6, 2-(2-fluoro-4-trifluoromethylbenzoyl-amino)-5-[3-(4-trifluoromethylbenzoyl-amino)phenoxy]benzoic acid], for which the inhibition at 10 µM came out at 98%.

With `O=C(Nc1ccc(Oc2ccc(NS(=O)(=O)c3ccc(C(F)(F)F)cc3Cl)cc2)cc1C(=O)O)c1ccc(C(F)(F)F)cc1` [11:2, 5-[4-(2-chloro-4-trifluoromethyl-benzenesulfonylamino)phenoxy]-2-(4-trifluoromethylbenzoyl-amino)benzoic acid], the inhibition at 10 µM is 97%.

Take `COc1ccc(S(=O)(=O)N(C)c2ccc(Oc3ccc(NC(=O)c4ccc(Cl)cc4Cl)c(C(=O)O)c3)cc2)cc1` [11:4]: the “% inh.” value was determined as 98%. In the case of `CCCCc1ccc(S(=O)(=O)N(C)c2ccc(Oc3ccc(NC(=O)c4ccc(C)cc4)c(C(=O)O)c3)cc2)cc1` [11:5, 5-{4-[(4-butyl-benzenesulfonyl)-methylamino]phenoxy}-2-(4-methylbenzoylamino)benzoic acid], the inhibition at 10 µM was 99%.

As to `CCCCc1ccc(S(=O)(=O)N(C)c2ccc(Oc3ccc(NC(=O)c4ccc(OC(C)C)cc4)c(C(=O)O)c3)cc2)cc1` [11:6, 5-{4-[(4-butylbenzene-sulfonyl)-methylamino]phenoxy}-2-(4-isopropoxybenzoylamino)-benzoic acid], the inhibition at 10 µM was found to be 96%. `CCCCc1ccc(S(=O)(=O)N(C)c2ccc(Oc3ccc(NC(=O)c4ccc(Cl)cc4Cl)c(C(=O)O)c3)cc2)cc1` [11:7, 5-{4-[(4-butylbenzenesulfonyl)-methylamino]phenoxy}-2-(2,4-dichlorobenzoylamino)benzoic acid]: the inhibition at 10 µM was 100%. For `CCCCc1ccc(C(=O)Nc2ccc(Oc3ccc(NS(=O)(=O)c4ccc(S(C)(=O)=O)cc4)cc3)cc2C(=O)O)cc1` [11:8, 2-(4-butylbenzoylamino)-5-[4-(4-methanesulfonylbenzene-sulfonylamino)phenoxy]benzoic acid], the inhibition at 10 µM was 98%.

Take `CCCCOc1ccc(S(=O)(=O)Nc2ccc(Oc3ccc(N(C)C(=O)c4ccccc4)c(C(=O)O)c3)cc2)cc1` [11:9, 2-(benzoylmethylamino)-5-[4-(4-butoxybenzenesulfonylamino)-phenoxy]benzoic acid]: the inhibition at 10 µM was 89%. Consider `CCCCOc1ccc(S(=O)(=O)Nc2ccc(Oc3ccc(N(C)C(=O)c4cccc(Cl)c4Cl)c(C(=O)O)c3)cc2)cc1` [11:10, 5-[4-(4-butoxybenzenesulfonyl-amino)phenoxy]-2-[(2,3-di-chlorobenzoyl)methylamino]-benzoic acid], for which the inhibition at 10 µM came out at 95%.

As to `Cc1c(F)cccc1S(=O)(=O)Nc1ccc(Oc2ccc(N(C)C(=O)c3ccc(OC(C)C)cc3)c(C(=O)O)c2)cc1` [11:11], the “% inh.” value came out at 72%. Regarding `COc1ccc(S(=O)(=O)N(C)c2ccc(Oc3ccc(NC(=O)c4ccc(Cl)cc4)c(C(=O)O)c3)cc2)cc1` [11:13, 2-(4-chlorobenzoylamino)-5-{4-[(4-methoxybenzenesulfonyl)-methylamino]phenoxy}benzoic acid], the inhibition at 10 µM stood at 99%. Turning to `COc1ccc(S(=O)(=O)N(C)c2ccc(Oc3ccc(NC(=O)c4cccc(Cl)c4)c(C(=O)O)c3)cc2)cc1` [11:14, 2-(3-Chloro-benzoylamino)-5-{4-[(4-methoxy-benzenesulfonyl)-methyl-amino]-phenoxy}-benzoic acid], the inhibition at 10 µM was found to be 100%. Turning to `COc1ccc(S(=O)(=O)N(C)c2ccc(Oc3ccc(NC(=O)c4cc(Cl)ccc4Cl)c(C(=O)O)c3)cc2)cc1` [11:15, 2-(2,5-Dichloro-benzoylamino)-5-{4-[(4-methoxy-benzenesulfonyl)-methyl-amino]-phenoxy}-benzoic acid], the inhibition at 10 µM worked out at 99%. Take `COc1ccc(S(=O)(=O)N(C)c2ccc(Oc3ccc(NC(=O)c4c(F)cccc4F)c(C(=O)O)c3)cc2)cc1` [11:16, 2-(2,6-Difluoro-benzoylamino)-5-{4-[(4-methoxy-benzenesulfonyl)-methyl-amino]-phenoxy}-benzoic acid]: the inhibition at 10 µM worked out at 94%.

`COc1ccc(S(=O)(=O)N(C)c2ccc(Oc3ccc(NC(=O)c4ccc(Cl)cc4OC)c(C(=O)O)c3)cc2)cc1` [11:17, 2-(4-Chloro-2-methoxy-benzoylamino)-5-{4-[(4-methoxy-benzenesulfonyl)-methyl-amino]-phenoxy}-benzoic acid]: the inhibition at 10 µM was determined as 97%. For `COc1ccc(S(=O)(=O)N(C)c2ccc(Oc3ccc(NC(=O)c4ccccc4C(F)(F)F)c(C(=O)O)c3)cc2)cc1` [11:18, 5-{4-[(4-Methoxy-benzenesulfonyl)-methyl-amino]-phenoxy}-2-(2-trifluoromethyl-benzoylamino)-benzoic acid], the inhibition at 10 µM is 96%. As to `COc1ccc(S(=O)(=O)N(C)c2ccc(Oc3ccc(NC(=O)c4ccccc4OC(F)(F)F)c(C(=O)O)c3)cc2)cc1` [11:19, 5-{4-[(4-Methoxy-benzenesulfonyl)-methyl-amino]-phenoxy}-2-(2-trifluoromethoxy-benzoylamino)-benzoic acid], the inhibition at 10 µM was determined as 97%. As for `COc1ccc(S(=O)(=O)N(C)c2ccc(Oc3ccc(NC(=O)c4cc(Cl)cnc4Cl)c(C(=O)O)c3)cc2)cc1` [11:21, 2-[(2,5-Dichloropyridine-3-carbonyl)amino]-5-{4-[(4-methoxybenzenesulfonyl)-methylamino]phenoxy}benzoic acid], the inhibition at 10 µM amounted to 96%.

For the origin of these results see US20110071197A1, “BIS-ARYL COMPOUNDS FOR USE AS MEDICAMENTS” (priority 2008, published 2011).
